Common to all, as to assay type: biochemical
Test [1] concerns the target T1, ST3Gal-II (Rattus norvegicus, UniProt Q11205).
T1 construct: purchased Calbiochem
T1 sequence (Q11205 1-350): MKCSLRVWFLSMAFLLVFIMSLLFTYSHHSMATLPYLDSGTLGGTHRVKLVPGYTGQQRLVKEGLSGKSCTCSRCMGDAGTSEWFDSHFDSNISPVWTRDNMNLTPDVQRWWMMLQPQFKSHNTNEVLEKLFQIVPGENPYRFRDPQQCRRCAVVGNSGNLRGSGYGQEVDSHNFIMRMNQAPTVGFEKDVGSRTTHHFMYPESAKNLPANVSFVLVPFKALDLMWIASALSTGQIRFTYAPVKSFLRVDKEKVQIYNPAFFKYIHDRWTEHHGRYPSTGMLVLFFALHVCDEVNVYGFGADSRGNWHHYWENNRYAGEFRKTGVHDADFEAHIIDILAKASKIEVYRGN
As to the kind of experiment: Exchange of radiolabeled sialyl residues in bovine brain gangliosides (TLC). Particulars: bovine brain ganglioside mixture, CMP-[9-3H]NeuAc or CMP-[14C]NeuAc. The text has this: Rat recombinant ST3Gal-II (α2,3(0)ST) was purchased from Calbiochem. Three different lots of ST3Gal-II purchased from Calbiochem and used in this study yielded similar results. CMP-NeuAc was obtained from Sigma. All enzymatic sialylation reactions were typically carried out in NaCa Codylate buffer pH6.0 in presence of enzyme acceptor CMP-[9-^3H]NeuAc or (NEN-DuPont) CMP[^14C]NeuAc. The concentration of total CMP-NeuAc was adjusted in individual reactions by supplementing with non-radioactive CMP-NeuAc. Products formed were separated using different chromatograph procedures. • a) Gel chromatography on Biogel P2 and P6 columns: A Biogel P2 column or Biogel P6 column (Fine Mesh; 1.0×116.0 cm) was used with 0.1 M pyridine acetate (pH5.4) as the eluent at room temperature. […] The first peak of radioactivity emerging in this void volume was collected and lyophilized to dryness. […]
Both [9-^3H] and [^14C] sialic acid labeled bovine brain ganglioside mixtures were subjected to TLC using CHcl3:CH3OH:0.2% aqueous CaCl2 (v/v 60:40:9) as the solvent system. The radioactivities were located on the TLC plates by scraping silica gel from 0.5 cm width segments of the TLC plates and then counting the radioactivity after soaking silica in 2.0 ml water by scintillation counting. […]

The target in test [2] is T1, ST3Gal-II. The experiment in a line: Donor specificity for reverse sialylation, ST3Gal-II. Particulars: 0.05 mM donor, […] 5′-CMP, acceptor 5 mM D-Fuc(1,3GalNAc(-O-Bn, 3 mU ST3Gal-II)); zero = slightly below background. The text has this:
We determined if reverse sialylation was more pronounced for ST3Gal-II in comparison to other sialyltransferases. Thus two other cloned rat sialyltransferases ST3Gal-III (or α2,3(N)ST) and ST6Gal-I (or α2,6(N)ST) (14) were examined. For these studies, we generated two molecules: i) [9-^3H]NeuAcα2,6Galβ1,4GlcNAcβ-O—Al (Al-Allyl) was made by the reaction of Galβ1,4GlcNAcβ-O—Al and CMP-[9-^3H]NeuAc in the presence of α2,6sialyltransferase, ST6Gal-I. (The radioactive product was separated using Biogel P2 column using a protocol similar to that described above.); and ii) [9-^3H]NeuAcα2,3Galβ1,4 GlcNAcβ-O—Al was similarly produced by reacting Galβ1,4GlcNAcβ-O—Al and CMP-[9-^3H]NeuAc in the presence of α2,3sialyltransferase ST3Gal-III. […] However, it is efficiently sialylated by both ST3Gal-III and ST6Gal-I. The ability of these two radiolabeled molecules ([14] and [15]) to act as [9-^3H]NeuAc donors was assayed in studies (Table IV) where the compounds were mixed with excess 5′-CMP, enzyme and acceptors with benzyl aglycan group. C18 cartridges were then used to measure the extent of [9-^3H]NeuAc transferred to acceptor using reaction scheme-II. Because all acceptors used in this table are efficiently sialylated by enzymes listed in the adjacent columns, these experiments essentially measure the amount of CMP-NeuAc formed using particular donor-enzyme pairs. […]

The next test has as its target T2, ST3Gal-III (Rattus norvegicus, UniProt Q02734).
T2 construct: purchased Calbiochem
T2 sequence (Q02734 1-374): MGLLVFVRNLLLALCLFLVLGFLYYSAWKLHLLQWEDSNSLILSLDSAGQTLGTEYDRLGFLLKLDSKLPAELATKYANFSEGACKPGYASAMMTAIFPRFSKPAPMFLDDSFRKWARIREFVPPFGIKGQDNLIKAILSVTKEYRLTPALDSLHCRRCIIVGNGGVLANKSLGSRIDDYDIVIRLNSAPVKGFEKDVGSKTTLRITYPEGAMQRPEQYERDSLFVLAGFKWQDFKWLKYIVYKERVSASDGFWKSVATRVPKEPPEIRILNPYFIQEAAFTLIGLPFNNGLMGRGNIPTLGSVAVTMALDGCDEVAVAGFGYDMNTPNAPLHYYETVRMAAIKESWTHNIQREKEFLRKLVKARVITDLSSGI
As to the kind of experiment: Donor specificity for reverse sialylation, ST3Gal-III. As to conditions: 0.05 mM donor, 0.8 mM 5′-CMP. The text has this:
(§1) We determined if reverse sialylation was more pronounced for ST3Gal-II in comparison to other sialyltransferases. Thus two other cloned rat sialyltransferases ST3Gal-III (or α2,3(N)ST) and ST6Gal-I (or α2,6(N)ST) (14) were examined. For these studies, we generated two molecules: i) [9-^3H]NeuAcα2,6Galβ1,4GlcNAcβ-O—Al (Al-Allyl) was made by the reaction of Galβ1,4GlcNAcβ-O—Al and CMP-[9-^3H]NeuAc in the presence of α2,6sialyltransferase, ST6Gal-I. (The radioactive product was separated using Biogel P2 column using a protocol similar to that described above.); and ii) [9-^3H]NeuAcα2,3Galβ1,4 GlcNAcβ-O—Al was similarly produced by reacting Galβ1,4GlcNAcβ-O—Al and CMP-[9-^3H]NeuAc in the presence of α2,3sialyltransferase ST3Gal-III. […] However, it is efficiently sialylated by both ST3Gal-III and ST6Gal-I. The ability of these two radiolabeled molecules ([14] and [15]) to act as [9-^3H]NeuAc donors was assayed in studies (Table IV) where the compounds were mixed with excess 5′-CMP, enzyme and acceptors with benzyl aglycan group. C18 cartridges were then used to measure the extent of [9-^3H]NeuAc transferred to acceptor using reaction scheme-II. Because all acceptors used in this table are efficiently sialylated by enzymes listed in the adjacent columns, these experiments essentially measure the amount of CMP-NeuAc formed using particular donor-enzyme pairs.
(§2) Thus, reverse sialylation takes place with ST3Gal-II.

The target of another test is T3, ST6Gal-I (Rattus norvegicus, UniProt P13721).
T3 construct: purchased Calbiochem
T3 sequence (P13721 1-403): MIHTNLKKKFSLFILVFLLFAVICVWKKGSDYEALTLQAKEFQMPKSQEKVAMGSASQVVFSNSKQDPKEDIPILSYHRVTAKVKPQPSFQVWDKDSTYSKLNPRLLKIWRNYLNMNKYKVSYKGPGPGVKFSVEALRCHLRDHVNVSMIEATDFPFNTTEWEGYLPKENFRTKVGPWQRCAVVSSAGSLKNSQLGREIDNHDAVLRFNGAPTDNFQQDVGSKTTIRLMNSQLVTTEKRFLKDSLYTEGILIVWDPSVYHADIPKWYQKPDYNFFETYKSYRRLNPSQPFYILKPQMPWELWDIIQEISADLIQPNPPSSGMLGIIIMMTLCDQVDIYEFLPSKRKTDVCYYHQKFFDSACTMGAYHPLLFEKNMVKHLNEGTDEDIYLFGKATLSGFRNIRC
As to the kind of experiment: Donor specificity for reverse sialylation, ST6Gal-I. As to conditions: 0.05 mM donor, 0.8 mM 5′-CMP, 3 mU ST6Gal-I.
Description: as §1, §2

Marks after values point to notes of the source that are not given here.

As to GD1a, the “Exchange of sialyl residues with CMP-sialic acid by ST3Gal-II” value on ST3Gal-II [1] is “exchangeable”.
Same read-out and setting: under GT1b stands “exchangeable”.
Consider “[9-^3H]NeuAcα2,3Galβ1,4 GlcNAcβ-O—Al [[15]]”, for which the Radiolabeled acceptor/product formed was <0* CPM at ST3Gal-II [2]; 24 CPM at ST3Gal-III (acceptor 2.5 mM Gal(1,4GlcNAc(1,3Gal(1,4GlcNAc(-O-Bn, 3 mU ST3Gal-III))))); 27 CPM at ST3Gal-III (acceptor 2.5 mM Galβ1,4GlcNAcβ1,6(Galβ1,3)GalNAcα-O-Bn, 3 mU ST3Gal-III); 5 CPM at ST3Gal-III (acceptor 2.5 mM Galβ1,4GlcNAcβ-O-Bn, 3 mU ST3Gal-III).
For the substance “[9-^3H]NeuAcα2,6Galβ1,4GlcNAcβ-O—Al [[14]]”, the Radiolabeled acceptor/product formed on ST6Gal-I (acceptor 2.5 mM Galβ1,4GlcNAcβ1,3Galβ1,4GlcNAcβ-O-Bn) was 45 CPM; on ST6Gal-I (acceptor 2.5 mM Galβ1,4GlcNAcβ1,6(Galβ1,3)GalNAcα-O-Bn), 36 CPM; on ST6Gal-I (acceptor 2.5 mM Galβ1,4GlcNAcβ-O-Bn), 129 CPM; at ST3Gal-II [2] it was <0* CPM.

The values above are taken from patent US8278072B1, “Method for synthesis of sialylated products using reversible sialylation” (Health Research, Inc., priority 2007, dated 2012).
